# Assay: recombinant UMI read abundance after kanamycin selection (control-corrected) (log10(CPM+1)); higher = more efficient recombination; extreme values may be limits of the assay; sequences stand for … in AGTGCAGAGAAAATCGGCCAGTTTTCTCTGCCTGCAGTCCGCATGCCGTGGGACCCCTTGGGTTCTAACCTGTTGCCTAGATTTATGCAGCGGACTGCCTTTCTCCCAAAGTGATAAACCGG…AGGTTGGTTTCACT; site = the 11-nt donor
# In short: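 For the IS621 bridge recombinase, a pooled Escherichia coli screen tested donor and donor-binding-loop pairs. Cells received the pair library together with a target plasmid encoding a fixed target and T7-inducible recombinase, then went onto IPTG (0.07 mM) plus kanamycin or unselected plates in duplicate. After PCR across the donor–target junction and sequencing, recombinant UMI counts were normalized to CPM, averaged, and scaled by control-derived factors. Each value is given as log10(CPM+1).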
row,Sequence,recombinant UMI read abundance (log10)
1,TAGCGTTCATGGACCGGTTTTCCCGGTAATCCGTATTTGGT (site TAGCATTCTAC),0.538
2,TAGCGTTCATGGACCGGTTTTCCCGGTAATCCGTATTTGGT (site TAGCCTTCTAC),0.00546
3,TAGCGTTCATGGACCGGTTTTCCCGGTAATCCGTATTTGGT (site TAGCGTTCTAC),1.12
4,TAGCGTTCATGGACCGGTTTTCCCGGTAATCCGTATTTGGT (site TAGCTTTCTAC),0
5,TAGCTAGCATGGACCGGTTTTCCCGGTAATCCGTATTTGAT (site TAGCTAGCTAT),1.59
6,TAGCTAGCATGGACCGGTTTTCCCGGTAATCCGTATTTGAT (site TAGCTAGCTCT),0.0164
7,TAGCTAGCATGGACCGGTTTTCCCGGTAATCCGTATTTGAT (site TAGCTAGCTGT),0
8,TAGCTAGCATGGACCGGTTTTCCCGGTAATCCGTATTTGAT (site TAGCTAGCTTT),0.0212
9,TAGCTAGCATGGACCGGTTTTCCCGGTAATCCGTATTTGCA (site TAGCTAGCTTA),0.178
10,TAGCTAGCATGGACCGGTTTTCCCGGTAATCCGTATTTGCA (site TAGCTAGCTTC),0.00756
11,TAGCTAGCATGGACCGGTTTTCCCGGTAATCCGTATTTGCA (site TAGCTAGCTTG),1.01
12,TAGCTAGCATGGACCGGTTTTCCCGGTAATCCGTATTTGCA (site TAGCTAGCTTT),0.0133
13,TAGCTAGCATGGACCGGTTTTCCCGGTAATCCGTATTTGTA (site TAGCTAGCTTA),1.62
14,TAGCTAGCATGGACCGGTTTTCCCGGTAATCCGTATTTGTA (site TAGCTAGCTTC),0.0102
15,TAGCTAGCATGGACCGGTTTTCCCGGTAATCCGTATTTGTA (site TAGCTAGCTTG),0.789
16,TAGCTAGCATGGACCGGTTTTCCCGGTAATCCGTATTTGTA (site TAGCTAGCTTT),0.235
17,TAGCTCTCATGGACCGGTTTTCCCGGTAATCCGTATTTGGG (site TAGCTCTCTCC),0.00931
18,TAGGAATCATGGACCGGTTTTCCCGGTAATCCGTATTTGAG (site TAGGAATCTCA),2.32
19,TAGGAATCATGGACCGGTTTTCCCGGTAATCCGTATTTGAG (site TAGGAATCTCC),1.84
20,TAGGAATCATGGACCGGTTTTCCCGGTAATCCGTATTTGAG (site TAGGAATCTCG),1.36
21,TAGGAATCATGGACCGGTTTTCCCGGTAATCCGTATTTGAG (site TAGGAATCTCT),3.1
22,TAGGAATCATGGACCGGTTTTCCCGGTAATCCGTATTTGCG (site AAGGAATCTCG),2.07
23,TAGGAATCATGGACCGGTTTTCCCGGTAATCCGTATTTGCG (site CAGGAATCTCG),2.3
24,TAGGAATCATGGACCGGTTTTCCCGGTAATCCGTATTTGCG (site GAGGAATCTCG),0
25,TAGGAATCATGGACCGGTTTTCCCGGTAATCCGTATTTGCG (site TAAGAATCTCG),2.05

row,Sequence,recombinant UMI read abundance (log10)
1,TAGGAATCATGGACCGGTTTTCCCGGTAATCCGTATTTGCG (site TACGAATCTCG),1.28
2,TAGGAATCATGGACCGGTTTTCCCGGTAATCCGTATTTGCG (site TAGAAATCTCG),2.39
3,TAGGAATCATGGACCGGTTTTCCCGGTAATCCGTATTTGCG (site TAGCAATCTCG),1.05
4,TAGGAATCATGGACCGGTTTTCCCGGTAATCCGTATTTGCG (site TAGGAAACTCG),1.27
5,TAGGAATCATGGACCGGTTTTCCCGGTAATCCGTATTTGCG (site TAGGAACCTCG),0
6,TAGGAATCATGGACCGGTTTTCCCGGTAATCCGTATTTGCG (site TAGGAAGCTCG),0.419
7,TAGGAATCATGGACCGGTTTTCCCGGTAATCCGTATTTGCG (site TAGGAATCTAG),1.42
8,TAGGAATCATGGACCGGTTTTCCCGGTAATCCGTATTTGCG (site TAGGAATCTCA),2.6
9,TAGGAATCATGGACCGGTTTTCCCGGTAATCCGTATTTGCG (site TAGGAATCTCC),1.39
10,TAGGAATCATGGACCGGTTTTCCCGGTAATCCGTATTTGCG (site TAGGAATCTCG),2.72
11,TAGGAATCATGGACCGGTTTTCCCGGTAATCCGTATTTGCG (site TAGGAATCTCT),2.03
12,TAGGAATCATGGACCGGTTTTCCCGGTAATCCGTATTTGCG (site TAGGAATCTGG),2.08
13,TAGGAATCATGGACCGGTTTTCCCGGTAATCCGTATTTGCG (site TAGGAATCTTG),1.85
14,TAGGAATCATGGACCGGTTTTCCCGGTAATCCGTATTTGCG (site TAGGACTCTCG),0.892
15,TAGGAATCATGGACCGGTTTTCCCGGTAATCCGTATTTGCG (site TAGGAGTCTCG),1.94
16,TAGGAATCATGGACCGGTTTTCCCGGTAATCCGTATTTGCG (site TAGGATTCTCG),1.39
17,TAGGAATCATGGACCGGTTTTCCCGGTAATCCGTATTTGCG (site TAGGCATCTCG),1.14
18,TAGGAATCATGGACCGGTTTTCCCGGTAATCCGTATTTGCG (site TAGGGATCTCG),1.43
19,TAGGAATCATGGACCGGTTTTCCCGGTAATCCGTATTTGCG (site TAGGTATCTCG),1.63
20,TAGGAATCATGGACCGGTTTTCCCGGTAATCCGTATTTGCG (site TAGTAATCTCG),1.71
21,TAGGAATCATGGACCGGTTTTCCCGGTAATCCGTATTTGCG (site TATGAATCTCG),1.63
22,TAGGAATCATGGACCGGTTTTCCCGGTAATCCGTATTTGCG (site TCGGAATCTCG),1.51
23,TAGGAATCATGGACCGGTTTTCCCGGTAATCCGTATTTGCG (site TGGGAATCTCG),1.02
24,TAGGAATCATGGACCGGTTTTCCCGGTAATCCGTATTTGCG (site TTGGAATCTCG),1.47
25,TAGGAATCATGGACCGGTTTTCCCGGTAATCCGTATTTGCT (site TAGGAATCTAG),2.58

row,Sequence,recombinant UMI read abundance (log10)
1,TAGGAATCATGGACCGGTTTTCCCGGTAATCCGTATTTGCT (site TAGGAATCTCG),1.1
2,TAGGAATCATGGACCGGTTTTCCCGGTAATCCGTATTTGCT (site TAGGAATCTGG),2.28
3,TAGGAATCATGGACCGGTTTTCCCGGTAATCCGTATTTGCT (site TAGGAATCTTG),1.5
4,TAGGATGCATGGACCGGTTTTCCCGGTAATCCGTATTTGGC (site TAGGATGCTGC),3.08
5,TAGGCAACATGGACCGGTTTTCCCGGTAATCCGTATTTGAA (site TAGGCAACTTT),0.0147
6,TAGGGACCATGGACCGGTTTTCCCGGTAATCCGTATTTGGT (site TAGGGACCTAC),0.00346
7,TAGGTAACATGGACCGGTTTTCCCGGTAATCCGTATTTGAC (site TAGGTAACTGT),2.17
8,TAGGTGTCATGGACCGGTTTTCCCGGTAATCCGTATTTGCA (site TAGGTGTCTTG),3.29
9,TAGGTTCCATGGACCGGTTTTCCCGGTAATCCGTATTTGCC (site TAGGTTCCTGG),1.32
10,TAGTAAGCATGGACCGGTTTTCCCGGTAATCCGTATTTGTA (site TAGTAAGCTTA),2.8
11,TAGTACCCATGGACCGGTTTTCCCGGTAATCCGTATTTGGT (site TAGTACCCTAC),0.271
12,TAGTACTCATGGACCGGTTTTCCCGGTAATCCGTATTTGCA (site TAGTACTCTTG),2.61
13,TAGTATACATGGACCGGTTTTCCCGGTAATCCGTATTTGAC (site TAGTATACTGT),2.58
14,TAGTATACATGGACCGGTTTTCCCGGTAATCCGTATTTGCA (site TAGAATACTTG),1.23
15,TAGTATACATGGACCGGTTTTCCCGGTAATCCGTATTTGCA (site TAGCATACTTG),1.11
16,TAGTATACATGGACCGGTTTTCCCGGTAATCCGTATTTGCA (site TAGGATACTTG),0.222
17,TAGTATACATGGACCGGTTTTCCCGGTAATCCGTATTTGCA (site TAGTATACTTG),2.25
18,TAGTATCCATGGACCGGTTTTCCCGGTAATCCGTATTTGCA (site TAGTATCCTTG),0.736
19,TAGTGATCATGGACCGGTTTTCCCGGTAATCCGTATTTGCA (site TAGTGATCTTG),3.02
20,TAGTGGGCATGGACCGGTTTTCCCGGTAATCCGTATTTGTC (site TAGTGGGCTGA),2.31
21,TAGTTGCCATGGACCGGTTTTCCCGGTAATCCGTATTTGCC (site TAGTTGCCTGG),0
22,TAGTTGGCATGGACCGGTTTTCCCGGTAATCCGTATTTGTG (site TAATTGGCTCA),0.0238
23,TAGTTGGCATGGACCGGTTTTCCCGGTAATCCGTATTTGTG (site TACTTGGCTCA),0.0102
24,TAGTTGGCATGGACCGGTTTTCCCGGTAATCCGTATTTGTG (site TAGTTGGCTCA),0.476
25,TAGTTGGCATGGACCGGTTTTCCCGGTAATCCGTATTTGTG (site TATTTGGCTCA),0.00327
